Data reported in US20140323300A1, “HERBICIDAL COMPOUNDS” (SYNGENTA LIMITED, priority 2011, published 2014).

How the values were obtained:
Assay type in all cases: in vivo
[1] = test system: Alopecurus myosuroides (ALOMY); assay: Post-emergence glasshouse herbicide test; conditions: post-emergence (sprayed after 8 days cultivation), 1000 g/h, evaluated after 13 days, five point scale
How it was run: (§1)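 Damage was rated 13 days after treatment on a five-point scale (1 = 0–19%, 5 = 80–100%). The compound, formulated in 50:50 acetone/water with 0.5% Tween 20, was sprayed at 1000 g/h on pots one day (pre) or 8 days (post) after sowing, kept in a glasshouse at 24/16° C, 14 h light, 65% humidity.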

[2] = test system: Amaranthus retoflexus (AMARE); assay: Post-emergence glasshouse herbicide test; conditions: post-emergence (sprayed after 8 days cultivation), 1000 g/h, evaluated after 13 days, five point scale
How it was run: as §1

[3] = test system: Echinochloa crus-galli (ECHCG); assay: Post-emergence glasshouse herbicide test; conditions: post-emergence (sprayed after 8 days cultivation), 1000 g/h, evaluated after 13 days, five point scale
How it was run: as §1

[4] = test system: Ipomoea hederacea (IPOHE); assay: Post-emergence glasshouse herbicide test; conditions: post-emergence (sprayed after 8 days cultivation), 1000 g/h, evaluated after 13 days, five point scale
How it was run: as §1

[5] = test system: Setaria faberi (SETFA); assay: Post-emergence glasshouse herbicide test; conditions: post-emergence (sprayed after 8 days cultivation), 1000 g/h, evaluated after 13 days, five point scale
How it was run: as §1

[6] = test system: Solanum nigrum (SOLNI); assay: Post-emergence glasshouse herbicide test; conditions: post-emergence (sprayed after 8 days cultivation), 1000 g/h, evaluated after 13 days, five point scale
How it was run: as §1

[7] = test system: Alopecurus myosuroides (ALOMY); assay: Pre-emergence glasshouse herbicide test; conditions: pre-emergence (sprayed after one day cultivation), 1000 g/h, evaluated after 13 days, five point scale
How it was run: as §1

[8] = test system: Amaranthus retoflexus (AMARE); assay: Pre-emergence glasshouse herbicide test; conditions: pre-emergence (sprayed after one day cultivation), 1000 g/h, evaluated after 13 days, five point scale
How it was run: as §1

[9] = test system: Echinochloa crus-galli (ECHCG); assay: Pre-emergence glasshouse herbicide test; conditions: pre-emergence (sprayed after one day cultivation), 1000 g/h, evaluated after 13 days, five point scale
How it was run: as §1

[10] = test system: Ipomoea hederacea (IPOHE); assay: Pre-emergence glasshouse herbicide test; conditions: pre-emergence (sprayed after one day cultivation), 1000 g/h, evaluated after 13 days, five point scale
How it was run: as §1

[11] = test system: Setaria faberi (SETFA); assay: Pre-emergence glasshouse herbicide test; conditions: pre-emergence (sprayed after one day cultivation), 1000 g/h, evaluated after 13 days, five point scale
How it was run: as §1

[12] = test system: Solanum nigrum (SOLNI); assay: Pre-emergence glasshouse herbicide test; conditions: pre-emergence (sprayed after one day cultivation), 1000 g/h, evaluated after 13 days, five point scale
How it was run: as §1

Compound	percentage damage caused to the plant, POST Application ALOMY [1]	percentage damage caused to the plant, POST Application AMARE [2]	percentage damage caused to the plant, POST Application ECHCG [3]	percentage damage caused to the plant, POST Application IPOHE [4]	percentage damage caused to the plant, POST Application SETFA [5]	percentage damage caused to the plant, POST Application SOLNI [6]	percentage damage caused to the plant, PRE Application ALOMY [7]	percentage damage caused to the plant, PRE Application AMARE [8]	percentage damage caused to the plant, PRE Application ECHCG [9]	percentage damage caused to the plant, PRE Application IPOHE [10]	percentage damage caused to the plant, PRE Application SETFA [11]	percentage damage caused to the plant, PRE Application SOLNI [12]
Cc1c(-n2ncc(Cl)c(O)c2=O)ccc(S(C)(=O)=O)c1C1=NOCC1 [Compound 1.004]	5 (5=80-100%)	5 (5=80-100%)	5 (5=80-100%)	5 (5=80-100%)	5 (5=80-100%)	5 (5=80-100%)	5 (5=80-100%)	5 (5=80-100%)	5 (5=80-100%)	5 (5=80-100%)	5 (5=80-100%)	5 (5=80-100%)
O=c1c(O)c(Cl)cnn1-c1ccc(C(F)(F)F)cc1Cl [Compound 1.002, 5-chloro-2-[2-chloro-4-(trifluoromethyl)phenyl]-4-hydroxy-pyridazin-3-one]	1 (1=0-19%)	5 (5=80-100%)	5 (5=80-100%)	5 (5=80-100%)	5 (5=80-100%)	5 (5=80-100%)	2 (2=20-39%)	5 (5=80-100%)	5 (5=80-100%)	4 (4=60-79%)	4 (4=60-79%)	5 (5=80-100%)
CS(=O)(=O)c1ccc(-n2ncc(Cl)c(O)c2=O)c(Cl)c1C1=NOCC1 [Compound 1.017]	5 (5=80-100%)	5 (5=80-100%)	5 (5=80-100%)	5 (5=80-100%)	5 (5=80-100%)	5 (5=80-100%)	5 (5=80-100%)	5 (5=80-100%)	5 (5=80-100%)	5 (5=80-100%)	5 (5=80-100%)	5 (5=80-100%)
CS(=O)(=O)c1cc(C(F)(F)F)ccc1-n1ncc(Cl)c(O)c1=O [Compound 1.003]	5 (5=80-100%)	5 (5=80-100%)	5 (5=80-100%)	5 (5=80-100%)	5 (5=80-100%)	5 (5=80-100%)	5 (5=80-100%)	5 (5=80-100%)	5 (5=80-100%)	5 (5=80-100%)	5 (5=80-100%)	5 (5=80-100%)
CCc1cnn(-c2ccc(S(C)(=O)=O)c(C3=NOCC3)c2C)c(=O)c1O [Compound 1.005]	5 (5=80-100%)	5 (5=80-100%)	5 (5=80-100%)	5 (5=80-100%)	5 (5=80-100%)	5 (5=80-100%)	4 (4=60-79%)	5 (5=80-100%)	4 (4=60-79%)	4 (4=60-79%)	2 (2=20-39%)	5 (5=80-100%)
CCc1cnn(-c2ccc(C(F)(F)F)nc2S(C)(=O)=O)c(=O)c1O [Compound 1.036]	5 (5=80-100%)	5 (5=80-100%)	5 (5=80-100%)	5 (5=80-100%)	5 (5=80-100%)	5 (5=80-100%)	5 (5=80-100%)	5 (5=80-100%)	5 (5=80-100%)	5 (5=80-100%)	5 (5=80-100%)	5 (5=80-100%)
CSc1cnn(-c2ccc(Cl)cc2S(C)(=O)=O)c(=O)c1O [Compound 1.048]	1 (1=0-19%)	4 (4=60-79%)	3 (3=40-59%)	3 (3=40-59%)	2 (2=20-39%)	4 (4=60-79%)	1 (1=0-19%)	4 (4=60-79%)	3 (3=40-59%)	3 (3=40-59%)	2 (2=20-39%)	4 (4=60-79%)
CSc1cnn(-c2ccc(C(F)(F)F)cc2S(C)(=O)=O)c(=O)c1O [Compound 1.034]	1 (1=0-19%)	5 (5=80-100%)	4 (4=60-79%)	4 (4=60-79%)	3 (3=40-59%)	5 (5=80-100%)	1 (1=0-19%)	5 (5=80-100%)	4 (4=60-79%)	4 (4=60-79%)	3 (3=40-59%)	5 (5=80-100%)
CS(=O)(=O)c1cc(Cl)ccc1-n1ncc(S(C)(=O)=O)c(O)c1=O [Compound 1.047]	1 (1=0-19%)	2 (2=20-39%)	1 (1=0-19%)	2 (2=20-39%)	1 (1=0-19%)	2 (2=20-39%)	1 (1=0-19%)	2 (2=20-39%)	1 (1=0-19%)	2 (2=20-39%)	1 (1=0-19%)	2 (2=20-39%)
